Test results: PubChem BioAssay AID489033 (Sanford-Burnham Center for Chemical Genomics, 2010)
Activity calls are given as the source filed them. How the calls were made is not given here.

Test system: 697B B-cell line, NF-kB luciferase reporter luminescence
Experiment: inhibitors of B-cell NF-kB luciferase signal – 697B cells, luminescence, selectivity assay for T-cell antigen receptor NF-kB inhibitors, dose response (AID 489033)

Compound	IC50
NS(=O)(=O)c1ccc(Sc2nc3ccccc3s2)c([N+](=O)[O-])c1	1.34 µM
COC(=O)c1[nH]c2ccc(F)cc2c1NS(=O)(=O)c1ccc(OC)cc1	> 80 µM (inactive)
Cc1cccc(N2CCN(C(=O)c3c(-c4ccccc4)noc3C)CC2)c1C	> 80 µM (inactive)
CCCCCCCn1c2c(c(=N)c3ccccc31)CCC2	3.7 µM
COc1ccc(C(=O)/C(C#N)=N/Nc2ccc([N+](=O)[O-])cc2)cc1	18.6 µM
Cc1csc2ncnc(NC3CCN(Cc4ccccc4)CC3)c12	8.31 µM
N#Cc1ccc(-c2cccs2)nc1SCc1cccnc1	> 80 µM (inactive)
Cc1ccc(C(=O)c2cc([N+](=O)[O-])ccc2N2CCCCC2)c(C)c1	> 80 µM (inactive)
CC(C)(C)c1ccc(C(=O)Nc2ccc(Oc3cccnc3)nc2)cc1	3.28 µM
CN(C)c1ccc2c(c1)OC(N)=C(C#N)C2c1cccc(F)c1 (stereo not given)	> 80 µM (inactive)
Cc1cccc(N=Nc2ccc(O)c3ncccc23)c1	1.1 µM
CCOc1cc(C#N)c(NC(=O)c2cccnc2)cc1OCC	> 80 µM (inactive)
O=C(Sc1cccc2cccnc12)c1ccccc1Br	3.61 µM
CC1=C([N+](=O)[O-])C(c2ccccc2)C2=C(N1)c1ccccc1C2=O (stereo not given)	> 80 µM (inactive)
CCOC(=O)c1ccc(NC(=O)Cn2cnc3cc(C)c(C)cc32)cc1	> 80 µM (inactive)
COc1ccc(OC)c(Nc2cc(-c3ccccc3)nc(N)n2)c1	> 80 µM (inactive)
COc1cc([C@@H]2c3cc4c(cc3[C@@H](OC)[C@H]3COC(=O)[C@H]23)OCO4)cc(OC)c1O	> 80 µM (inactive)
CC1CCCN(c2ncnc3c2cnn3-c2ccc(Cl)cc2)C1 (stereo not given)	< 0.16 µM
COC(=O)c1ccccc1NC1=C/C(=N\S(=O)(=O)c2cccs2)c2ccccc2C1=O	4.91 µM
O=C1C=CC(O)(c2cc(=O)c3c(O)cc(O)cc3o2)C=C1	1.62 µM
CCOc1ccccc1NC(=O)Cn1nnc(C(=O)NCc2ccco2)c1N	> 80 µM (inactive)
COc1ccc(-n2cc(-c3ccc(C)cc3)[n+]3c2SCC3)cc1	> 80 µM (inactive)
COc1cccc(N2CCN(C(=O)c3ccc(CS(=O)c4ccccc4C)o3)CC2)c1 (stereo not given)	> 80 µM (inactive)
CC(C)CCOc1cccc(OCC(=O)Nc2ccncc2)c1	> 80 µM (inactive)

Compound	IC50
CCN1C/C(=C/c2ccc(OC)c(O)c2)C(=O)/C(=C/c2ccc(OC)c(O)c2)C1	25.2 µM (inactive)
CC1CCN(c2c(NCc3ccc(C(=O)N4CCc5ccccc54)cc3)c(=O)c2=O)CC1	> 80 µM (inactive)
C/C=C(\C)C(=O)N[C@@H](c1ccccc1)[C@@H](O)C(=O)O[C@H]1C[C@@]2(O)[C@@H](OC(=O)c3ccccc3)C3[C@](C)(C(=O)[C@H](O)C(=C1C)C2(C)C)[C@@H](O)C[C@H]1OC[C@@]31OC(C)=O (stereo not given in full)	> 80 µM (inactive)
COc1ccc(CS(=O)(=O)/C(Cl)=C(/Cl)C(=O)Nc2ccc(OC)nc2)cc1	3.32 µM
CCOc1ccc(NC(=O)c2cc3c(C)nc4ccccc4c3o2)cc1	> 80 µM (inactive)
Cc1ccc2nc(C)c(CN3CCN(c4ccc([N+](=O)[O-])cc4Cl)CC3)n2c1	> 80 µM (inactive)
COC(=O)Nc1ccc(S(=O)(=O)N2CCCc3ccccc32)cc1	> 80 µM (inactive)
COc1cc(/C=C/[N+](=O)[O-])ccc1OCc1cccc(C(=O)O)c1	12 µM
CCOc1ccccc1C(=O)N1CCN(c2cccc(Cl)c2)CC1	> 80 µM (inactive)
CCCCCCCCCn1c2c(c(=N)c3c1CCC3)CCCC2	0.33 µM
O=C(/C=C/c1cccc([N+](=O)[O-])c1)n1cnc2ccccc21	3.2 µM
Cc1cnc(NC(=O)c2ccc3c(c2)OCCO3)s1	1.08 µM
CC1=Nc2ccccc2/C1=C\c1sc(Nc2ccc(C)cc2)nc1O	61 µM (inactive)
Cc1ccc(C)c(N=Nc2ccc(O)c3ncccc23)c1	4.44 µM
Cc1nn(C)c(C)c1CN(Cc1nc(CCC(C)C)no1)C(C)C	> 80 µM (inactive)
CC(C)(C)c1nnc(N/N=C/c2ccccc2O)n(N)c1=O	52.8 µM (inactive)
CC(=O)O[C@@]12CO[C@@H]1C[C@@H](O)[C@@]1(C)C(=O)[C@H](O)C3=C(C)[C@@H](OC(=O)[C@H](O)[C@@H](NC(=O)c4ccccc4)c4ccccc4)C[C@@](O)([C@@H](OC(=O)c4ccccc4)C12)C3(C)C (stereo not given in full)	> 80 µM (inactive)
Cc1ccc(C(=O)c2cc([N+](=O)[O-])ccc2N2CCOCC2)c(C)c1	> 80 µM (inactive)
COc1cc(NC(=O)N2CCNC2=O)cc(C(=O)Nc2cccc(C(F)(F)F)c2)c1	< 0.16 µM
CCN(CC)c1ccc2nc3ccccc3[n+](CC)c2c1	45.8 µM (inactive)
CNC[C@@H](CC1CCCCC1)NC[C@H](CC(C)C)NCCc1cccc(C(F)(F)F)c1	4.88 µM
O=C(Nc1ccc(S(=O)(=O)N2CCCC2)cc1)c1ccc(CN2CCc3ccccc3C2)cc1	> 80 µM (inactive)
COC(=O)C1CN(C#N)N(c2ccc(Cl)cc2)C12c1ccccc1-c1ccccc12 (stereo not given)	3.58 µM
O=c1cc(-c2cccc(F)c2)[nH]c2ccccc12	> 80 µM (inactive)

Compound	IC50
COc1ccc(-c2ccc3oc(-c4ccc(OC)cc4)c(C#CCO)c3c2)cc1	> 80 µM (inactive)
COc1cccc2sc(Nc3nnc(-c4ccccc4Cl)o3)nc12	3.64 µM
O=C1c2cccc3cc([N+](=O)[O-])cc(c23)C(=O)N1CCN1CCCC1	18.7 µM
Cc1ccc(S(=O)(=O)Nc2ccccc2-c2ccccc2)cc1	> 80 µM (inactive)
CCCCC(=O)NC(c1ccc(N(C)C)cc1)c1ccc2cccnc2c1O (stereo not given)	> 80 µM (inactive)
COc1ccc(NC(=O)/C(Cl)=C(/Cl)S(=O)Cc2ccccc2)cn1 (stereo not given)	0.6 µM
COc1ccc(CCN2C(=O)C3C4C=CC(C3C2=O)C2C(=O)N(CCc3ccc(OC)c(OC)c3)C(=O)C42)cc1OC (stereo not given)	> 80 µM (inactive)
C=C1C(=O)C=C2CN(C(=O)c3ccccc3)[C@@](Cc3ccc(F)cc3)(C(=O)OC)[C@@H]12	1.01 µM
COC(=O)C[C@]1(C(=O)OC)CN(C#N)N(c2ccc(Cl)cc2)C12c1ccccc1-c1ccccc12	4.43 µM
Cc1ccc(C(=O)N/N=C/c2ccc([N+](=O)[O-])s2)cc1	4.21 µM
CCCCCCCCC[n+]1cccc2c3ccccc3ccc21	1.98 µM
COC(=O)c1ccc2nc(Nc3nc4c(F)cc(F)cc4s3)sc2c1	24.6 µM (inactive)
COc1cc(OC)c(/C=C2\C(=O)Nc3ccccc32)c(OC)c1	62.6 µM (inactive)
COc1ccc(OC)c(COC(=O)c2cc([N+](=O)[O-])ccc2N2CCOCC2)c1	> 80 µM (inactive)
CCOC(=O)N1CCN(C(=O)C2CCCN(Cc3nc(-c4ccc(Cl)cc4)oc3C)C2)CC1 (stereo not given)	33.9 µM (inactive)
COc1cccc(OC)c1C1=NCC(=O)Nc2c1oc1ccc(Br)cc21	56.8 µM (inactive)
CC1(C)Cc2c(sc(NC(=O)COc3cccc4ccccc34)c2C#N)C(C)(C)N1	8.2 µM
CCCCC(=O)NC(c1ccc(Cl)cc1Cl)c1ccc2cccnc2c1O (stereo not given)	> 80 µM (inactive)
CC(=O)N(C)C1=C(N2CCOCC2)C(=O)c2ccccc2C1=O	17.9 µM
COc1ccccc1-c1nnc2n1N=C(c1ccc(O)c(O)c1)CS2	77.9 µM (inactive)
COc1ccc(OC)c(CCNC(=O)Cn2nc(C)c3c(C)n(-c4ccc(C)cc4)nc3c2=O)c1	> 80 µM (inactive)
Cc1[nH]n(-c2ccccc2)c(=O)c1/C=N/Nc1nncc(-c2ccccc2)n1	> 80 µM (inactive)
COc1ccccc1NC(=O)C1=C(C)Nc2nc3ccccc3n2C1c1cccs1 (stereo not given)	> 80 µM (inactive)
Cc1ccc(N2C(=O)c3cccc4c(N)ccc(c34)C2=O)c2cccnc12	> 80 µM (inactive)

Compound	IC50
Cn1c(SC2=CS(=O)(=O)c3ccccc32)nc2ccccc21	3.54 µM
COc1cc(C(=O)Nc2ccc3c(c2)CCN3C(C)=O)cc(OC)c1OC	> 80 µM (inactive)
COc1ccc(C)c(Cn2c(-c3nonc3N)nc3ccccc32)c1	> 80 µM (inactive)
COc1ccc(/C=C/C(=O)c2cc(F)ccc2OC(=O)c2ccccc2)cc1OC	> 80 µM (inactive)
N/C(=N\OCc1ccc([N+](=O)[O-])cc1)c1ccccn1	2.43 µM
Cc1nc(NCc2ccco2)c2c(C)c(C)sc2n1	5.3 µM
CCCC(=O)NC(c1ccc(N(C)C)cc1)c1ccc2cccnc2c1O (stereo not given)	> 80 µM (inactive)
CCCN1C=CC(=C2C(=O)c3ccccc3C2=O)C=C1	< 0.16 µM
CCCCCC(=O)N[C@@H](c1ccccc1)[C@@H](O)C(=O)O[C@H]1C[C@@]2(O)[C@@H](OC(=O)c3ccccc3)C3[C@](C)(C(=O)[C@H](OC(C)=O)C(=C1C)C2(C)C)[C@@H](O)C[C@H]1OC[C@@]31OC(C)=O (stereo not given in full)	> 80 µM (inactive)
COc1ccc(/C=N/Nc2cc(C)nc3ccc(OC)cc23)c(OC)c1	5.2 µM
COC(=O)c1[nH]c2c(c1C)C(=O)CC(c1cccc(OC)c1)C2 (stereo not given)	> 80 µM (inactive)
Cc1ccc(O)c(N=Nc2nccs2)c1	8.6 µM
CCO[C@H]1OC(C(=O)NCc2nc3ccccc3[nH]2)=C[C@@H](C2CC2)[C@@H]1CCCO	> 80 µM (inactive)
CCn1nc(C)c(CNC(=O)c2ccc(OC3CCN(Cc4ccccn4)CC3)cc2)c1C	> 80 µM (inactive)
COc1cc(-c2noc(C)c2-c2ccc3[nH]ccc3c2)cc(OC)c1OC	> 80 µM (inactive)
Cc1ccc(O)c(NC(=O)c2cc(-c3ccccc3)on2)c1	> 80 µM (inactive)
Cc1cccc(NS(=O)(=O)c2ccc(-c3cnc(C4CC4)o3)cc2)c1	> 80 µM (inactive)
Cc1ccc(Nc2cc(C)nn2-c2nc(C)cc(=O)[nH]2)cc1	0.95 µM
Cc1ccc(C[n+]2c(-c3ccc(C)cc3)cc(-c3ccc(C)cc3)cc2-c2ccc(C)cc2)cc1	0.29 µM
CC[C@]1(O)CC2CN(CCc3c([nH]c4ccccc34)[C@@](C(=O)OC)(c3cc4c(cc3OC)N(C=O)[C@H]3[C@@](O)(C(=O)OC)[C@H](OC(C)=O)[C@]5(CC)C=CCN6CC[C@]43[C@@H]65)C2)C1 (stereo not given in full)	> 80 µM (inactive)
COc1cc(NS(=O)(=O)c2ccc(C)cc2)c2ncccc2c1	1.05 µM
CCOc1ccccc1C1CC(=O)Nc2cc3c(cc21)OCCO3 (stereo not given)	> 80 µM (inactive)
C[C@]12CC[C@H](O)C[C@H]1CC[C@@H]1[C@@H]2C[C@@H](O)[C@]2(C)[C@@H](C3=CC(=O)OC3)CC[C@]12O	1.6 µM
